Key:
ZIKV ZG-01 strain [1] = experiment: In vitro antiviral assay, plaque assay, ZIKV ZG-01
Protocol: (§1) The anti-ZIKV activity of fidaxomicin and ribavirin was evaluated in vitro by plaque assay. Various cell lines, including SNB19 (6 × 10^4/well, 10% FBS DMEM), A172 (7 × 10^4/well, 10% FBS DMEM), Vero (6 × 10^4/well 10% FBS DMEM), Huh7 (7 × 10^4/well, 10% FBS DMEM), HUVECs (7 × 10^4/well, 15% FBS M199 medium supplemented with 2 mM L-glutamine, 0.02 mg/mL endothelial cell growth supplement, and 0.05 mg/mL heparin), and A549 (6 × 10^4/well, 5% FBS DMEM), were plated in 12-well plates and allowed to attach overnight, followed by infection with ZIKV (ZG-01 strain or MR766 strain, respectively, at indicated MOI) in the presence of different concentrations of fidaxomicin, ribavirin, or vehicle control for 1 h, followed by two washes with 1 × PBS and incubated with fresh medium (without virus) consisting of corresponding concentrations of the compounds for further 48 h. The cell supernatants were collected to quantify ZIKV infection by plaque assay as previously described or by RT-qPCR. […] The anti-DENV activity of fidaxomicin was evaluated in vitro by RT-qPCR.

ZIKV ZG-01 strain [2] = experiment: In vitro antiviral assay, RT-qPCR, ZIKV ZG-01; assay type: cell-based; conditions: Zika virus
Protocol: as §1
(§2) RNA from cell supernatants or from mouse tissues (brain and testis) was prepared with RaPure Viral RNA/DNA Kit (Magen, Guangzhou, China) according to the manufacturer’s instructions. The first-strand cDNA was synthesized using random hexamer primers with the Revert Aid Reverse Transcription Kit (Thermo Fisher Scientific, Rockford, IL, USA), and real-time PCR was carried out by using LightCycler® 480 Probes Master (2× reaction mix buffer including DNA polymerase) (no. 04887301001, Roche, Basel, Switzerland). Virus concentration was determined by interpolation onto an internal standard curve made up of a 7-point dilution series of in vitro transcribed RNA and tissue weight to quantify ZIKV RNA as copies/gram tissue. Primer sets used for real-time PCR are shown in Additional file 1: Table S1. Reverse transcription and real-time PCR were performed for at least three times.

ZIKV (ZG-01 strain) = experiment: Antiviral efficacy in ZIKV-infected Ifnar1-/- mice, i.v. dosing; assay type: in vivo; conditions: for Median survival: vehicle 8.5 days
Protocol: as §2
For ZIKV infection and antiviral treatment studies, mice were randomly assigned to groups (n = 12–13/group). Male and female 5-week-old Ifnar1^−/− mice were infected subcutaneously (s.c.) with ZIKV (ZG-01 strain, 2 × 10^4 PFU for each mouse) 1 h before administration of treatment agents. Compounds were prepared in sterile pharmaceutical dosage form of 1:10:89 (DMSO : Tween80 : 5% glucose solution) less than 4 h prior to administration in mice. Fidaxomicin was administered by tail vein injection daily at 20 or 10 mg/kg for 7 days. The identity of the treatment groups was blinded to the researcher administering treatments. Survival, disease signs, and the weight of each mouse were recorded on day 0 and then every other day from 1 to 15 days post-infection (dpi). Mice were humanely euthanized if they could no longer right themselves or were unresponsive to stimuli. Tissues, including the brains and testes, were collected from each animal. Part of each tissue was fixed in 4% paraformaldehyde or in PBS for at least 24 h prior to paraffin embedding and sectioning for use in immunohistochemistry analysis, immunofluorescence analysis, or analysis of viral RNA. Total RNA was extracted from tissues, and ZIKV RNA was quantified as described above.
Immunofluorescence assay was carried out on paraffin-embedded mouse brain and testis tissue slides, incubated with an anti-ZIKV E antibody (1:500, BioFront Technologies, Tallahassee, FL, USA). The secondary antibody was Rhodamine Red™-X (RRX) AffiniPure F (ab')2 Fragment Goat Anti-Mouse IgG (1:500, AB_2338781, Jackson ImmunoResearch Laboratories, Inc. West Grove, PA, USA), and 4-,6-diamidino-2-phenylindole (DAPI, 1:1000, Sangon Biotech, Shanghai, China) was used to stain the nuclei. The immunofluorescent images were taken with an inverted microscope (Carl Zeiss, Oberkochen, Germany). For histologic staining, the fixed tissues were dehydrated, embedded in paraffin, sectioned, rehydrated, and stained with hematoxylin and eosin (H/E). The H/E-stained sections were evaluated for viral-induced neuropathology. […] histological examination was performed by a board-certified veterinary pathologist. Each slide was auto scanned by Axio Scan Z1 (Carl Zeiss, Oberkochen, Germany).

SMILES: CCc1c(Cl)c(O)c(Cl)c(O)c1C(=O)O[C@H]1[C@H](O)[C@H](OC)[C@H](OC/C2=C\C=C\C[C@H](O)/C(C)=C/[C@H](CC)[C@@H](O[C@@H]3OC(C)(C)[C@@H](OC(=O)C(C)C)[C@H](O)[C@@H]3O)/C(C)=C/C(C)=C/C[C@@H]([C@@H](C)O)OC2=O)O[C@@H]1C [Fidaxomicin]
- EC50 lower than that of ribavirin (ZIKV ZG-01 strain [1]; SNB19 cells): 10 fold
- concentration above which ZIKV infection was completely undetectable (ZIKV ZG-01 strain [1]; SNB19 cells, plaque assay): exceeded 18 μM
- EC90 (ZIKV ZG-01 strain [1]; SNB19 cells, plaque assay, 48 h): 8.9 ± 0.6 µM
- EC50 (ZIKV ZG-01 strain [1]; Zika virus, A549, 48 h): 12.2 ± 3.6 µM
- EC90 (ZIKV ZG-01 strain [1]; Zika virus, A549, 48 h, A549 cells, plaque assay, 48 h): 39.5 ± 4.8 µM
- EC50 (ZIKV ZG-01 strain [1]; Zika virus, Huh-7, 48 h): 7.7 ± 1.7 µM
- EC90 (ZIKV ZG-01 strain [1]; Zika virus, Huh-7, 48 h, Huh7 cells, plaque assay, 48 h): 17.8 ± 3.5 µM
- EC50 (ZIKV ZG-01 strain [1]; Zika virus, SNB-19, 48 h): 6 ± 1 µM
- EC90 (ZIKV ZG-01 strain [1]; Zika virus, SNB-19, 48 h, SNB19 cells, plaque assay, 48 h): ~9 µM
- EC50 (ZIKV ZG-01 strain [1]; Zika virus, Vero, 48 h): 11.7 ± 2.1 µM
- EC90 (ZIKV ZG-01 strain [1]; Zika virus, Vero, 48 h, Vero cells, plaque assay): 48.2 ± 5.3 µM
- EC50 (ZIKV ZG-01 strain [2]; A 172, A172 cells, viral RNA copy number by RT-qPCR): 8.8 ± 1.9 µM
- EC90 (ZIKV ZG-01 strain [2]; A 172, A172 cells, viral RNA copy number by RT-qPCR, read-out: EC90): 11.8 ± 1.4 µM
- EC90 (ZIKV ZG-01 strain [2]; HUVEC): 23.2 ± 3 µM
- EC50 (ZIKV ZG-01 strain [2]; HUVEC, HUVECs, viral RNA copy number by RT-qPCR): 14.5 ± 1.2 µM
- EC50 (ZIKV ZG-01 strain [2]; Huh-7, Huh7 cells, viral RNA copy number by RT-qPCR): 11.1 ± 1.6 µM
- EC90 (ZIKV ZG-01 strain [2]; Huh-7, Huh7 cells, viral RNA copy number by RT-qPCR, read-out: EC90): 21.6 ± 1 µM
- EC50 (ZIKV ZG-01 strain [2]; SNB-19, SNB19 cells, viral RNA copy number by RT-qPCR): 9.2 ± 2.4 µM
- EC90 (ZIKV ZG-01 strain [2]; SNB-19, SNB19 cells, viral RNA copy number by RT-qPCR, read-out: EC90): 17.3 ± 4.8 µM
- EC50 (ZIKV ZG-01 strain [2]; A549 cells, viral RNA copy number by RT-qPCR): 13 ± 3.3 µM
- EC90 (ZIKV ZG-01 strain [2]; A549 cells, viral RNA copy number by RT-qPCR, read-out: EC90): 17.8 ± 5.3 µM
- EC50 (ZIKV ZG-01 strain [2]; Vero cells, viral RNA copy number by RT-qPCR): 12.5 ± 2.2 µM
- EC90 (ZIKV ZG-01 strain [2]; Vero cells, viral RNA copy number by RT-qPCR, read-out: EC90): 52.1 ± 5.5 µM
- Median survival (ZIKV (ZG-01 strain); 10 mg/kg i.v. daily for 7 days): 14 days
- Median survival (ZIKV (ZG-01 strain); 20 mg/kg i.v. daily for 7 days): over 15 days
- body weight loss (ZIKV (ZG-01 strain); 20 mg/kg/day, between 8 and 15 dpi, vs vehicle): obvious protection from weight loss
- ZIKV load in the brains and testes (immunostaining of ZIKV E) (ZIKV (ZG-01 strain); 10 and 20 mg/kg vs vehicle): reduced
- viral RNA levels in the brain and testis (ZIKV (ZG-01 strain); 15 dpi, 10 and 20 mg/kg groups, RT-qPCR): significantly decreased
- neuronal necrosis in hippocampal pyramidal cells (ZIKV (ZG-01 strain); H/E staining): remarkably reduced
- pathologic damages in the cerebra (ZIKV (ZG-01 strain); both treatment groups vs vehicle, H/E staining): remarkably alleviated
- number of neurological signs (paralysis, hunching) (ZIKV (ZG-01 strain); both treatment groups, dose-dependent): progressive decrease
- perivascular cuffing of vessels in cerebra (ZIKV (ZG-01 strain); both treatment groups, p = 0.0090 and p < 0.0001): significant decrease
- mice protected from mortality (ZIKV (ZG-01 strain); high-dose group (20 mg/kg i.v. daily for 7 days)): nine out of 13
- effective therapeutic doses against ZIKV (ZIKV (ZG-01 strain); mice, i.v.): 10 to 20 mg/kg
- ZIKV E protein in brain and testis tissues (western blotting) (ZIKV (ZG-01 strain); vs vehicle control): significant suppressive effect
